Among the data in ChEMBL document CHEMBL3991601, “The target landscape of clinical kinase drugs” (Science, 2017) are Kd values, retold here.

Structures are written as SMILES. Calls of active or inactive are those of the source. For most assays here, no stated cut-off is given here; in the data, actives have a measured Kd and inactives only a lower limit.

For experiment [1], the target named is Tyrosine-protein kinase BTK (Homo sapiens, UniProt Q06187).
Experiment [2] addresses Mitogen-activated protein kinase kinase kinase 20 (Homo sapiens, UniProt Q9NYL2).
The target in experiment [3] is T1, Breakpoint cluster region protein (Homo sapiens, UniProt P11274).
T1 sequence (P11274 whole entry): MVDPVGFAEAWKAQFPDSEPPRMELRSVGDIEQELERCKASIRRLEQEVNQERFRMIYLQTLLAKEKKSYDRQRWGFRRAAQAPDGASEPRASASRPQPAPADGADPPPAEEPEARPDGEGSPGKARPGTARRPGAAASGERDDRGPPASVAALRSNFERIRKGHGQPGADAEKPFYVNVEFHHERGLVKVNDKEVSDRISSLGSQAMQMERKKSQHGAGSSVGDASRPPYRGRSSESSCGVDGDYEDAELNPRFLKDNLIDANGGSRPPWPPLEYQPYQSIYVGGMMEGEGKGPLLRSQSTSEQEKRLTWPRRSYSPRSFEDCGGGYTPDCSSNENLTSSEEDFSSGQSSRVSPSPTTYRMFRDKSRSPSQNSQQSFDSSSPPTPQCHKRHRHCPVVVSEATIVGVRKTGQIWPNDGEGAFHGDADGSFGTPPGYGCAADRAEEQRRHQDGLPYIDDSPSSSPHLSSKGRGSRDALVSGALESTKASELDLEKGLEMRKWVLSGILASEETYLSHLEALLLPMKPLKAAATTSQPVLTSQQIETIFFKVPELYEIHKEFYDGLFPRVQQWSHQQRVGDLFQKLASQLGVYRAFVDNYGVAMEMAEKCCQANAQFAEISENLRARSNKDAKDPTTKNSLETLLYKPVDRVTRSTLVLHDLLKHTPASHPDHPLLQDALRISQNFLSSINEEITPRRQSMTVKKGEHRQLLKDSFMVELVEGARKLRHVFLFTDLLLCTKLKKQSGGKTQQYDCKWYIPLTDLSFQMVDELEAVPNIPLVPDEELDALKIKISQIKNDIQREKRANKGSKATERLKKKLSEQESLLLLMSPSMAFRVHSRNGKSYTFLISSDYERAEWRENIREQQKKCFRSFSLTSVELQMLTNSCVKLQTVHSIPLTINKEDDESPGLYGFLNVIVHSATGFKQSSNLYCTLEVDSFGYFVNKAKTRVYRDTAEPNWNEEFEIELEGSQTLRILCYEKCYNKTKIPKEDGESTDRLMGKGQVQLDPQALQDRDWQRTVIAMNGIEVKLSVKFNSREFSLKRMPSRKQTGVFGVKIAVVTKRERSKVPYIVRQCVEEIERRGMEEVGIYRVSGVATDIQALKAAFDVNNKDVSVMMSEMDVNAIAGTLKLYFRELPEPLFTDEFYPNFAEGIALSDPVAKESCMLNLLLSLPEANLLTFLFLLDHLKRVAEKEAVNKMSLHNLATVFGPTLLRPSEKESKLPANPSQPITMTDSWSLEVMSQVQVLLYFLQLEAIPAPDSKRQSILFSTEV

In experiment [4] the target is T2, Glycogen phosphorylase, liver form (Homo sapiens, UniProt P06737).
T2 sequence (P06737 whole entry): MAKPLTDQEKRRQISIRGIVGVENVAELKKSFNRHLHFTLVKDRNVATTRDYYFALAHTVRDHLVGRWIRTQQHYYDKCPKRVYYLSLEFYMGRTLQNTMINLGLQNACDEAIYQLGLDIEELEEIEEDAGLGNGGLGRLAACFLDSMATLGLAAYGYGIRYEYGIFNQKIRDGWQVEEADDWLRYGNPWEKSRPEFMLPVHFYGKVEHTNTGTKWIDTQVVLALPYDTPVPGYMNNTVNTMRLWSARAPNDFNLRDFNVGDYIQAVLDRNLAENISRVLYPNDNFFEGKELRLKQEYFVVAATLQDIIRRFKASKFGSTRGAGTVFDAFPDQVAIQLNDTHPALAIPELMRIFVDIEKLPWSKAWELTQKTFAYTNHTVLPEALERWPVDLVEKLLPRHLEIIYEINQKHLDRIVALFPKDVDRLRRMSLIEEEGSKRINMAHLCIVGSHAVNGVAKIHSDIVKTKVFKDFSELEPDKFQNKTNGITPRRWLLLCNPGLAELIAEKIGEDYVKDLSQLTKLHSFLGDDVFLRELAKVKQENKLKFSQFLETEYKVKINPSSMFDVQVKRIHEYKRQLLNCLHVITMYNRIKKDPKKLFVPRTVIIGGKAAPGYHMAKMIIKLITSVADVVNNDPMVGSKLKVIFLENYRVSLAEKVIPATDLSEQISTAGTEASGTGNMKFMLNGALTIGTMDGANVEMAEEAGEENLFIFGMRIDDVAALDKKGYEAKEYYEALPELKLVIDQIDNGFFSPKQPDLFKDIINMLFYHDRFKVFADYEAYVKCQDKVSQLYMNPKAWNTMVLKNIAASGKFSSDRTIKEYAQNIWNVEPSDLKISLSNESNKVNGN
Type of experiment: subcellular, K-562, COLO 205, SK-N-BE(2) and MV-4-11, Cell lysate. Conditions: read-out: Kd apparent.

The target in experiment [5] is Interleukin-1 receptor-associated kinase 1 (Homo sapiens, UniProt P51617).
Interleukin-1 receptor-associated kinase 1, sequence (P51617 whole entry): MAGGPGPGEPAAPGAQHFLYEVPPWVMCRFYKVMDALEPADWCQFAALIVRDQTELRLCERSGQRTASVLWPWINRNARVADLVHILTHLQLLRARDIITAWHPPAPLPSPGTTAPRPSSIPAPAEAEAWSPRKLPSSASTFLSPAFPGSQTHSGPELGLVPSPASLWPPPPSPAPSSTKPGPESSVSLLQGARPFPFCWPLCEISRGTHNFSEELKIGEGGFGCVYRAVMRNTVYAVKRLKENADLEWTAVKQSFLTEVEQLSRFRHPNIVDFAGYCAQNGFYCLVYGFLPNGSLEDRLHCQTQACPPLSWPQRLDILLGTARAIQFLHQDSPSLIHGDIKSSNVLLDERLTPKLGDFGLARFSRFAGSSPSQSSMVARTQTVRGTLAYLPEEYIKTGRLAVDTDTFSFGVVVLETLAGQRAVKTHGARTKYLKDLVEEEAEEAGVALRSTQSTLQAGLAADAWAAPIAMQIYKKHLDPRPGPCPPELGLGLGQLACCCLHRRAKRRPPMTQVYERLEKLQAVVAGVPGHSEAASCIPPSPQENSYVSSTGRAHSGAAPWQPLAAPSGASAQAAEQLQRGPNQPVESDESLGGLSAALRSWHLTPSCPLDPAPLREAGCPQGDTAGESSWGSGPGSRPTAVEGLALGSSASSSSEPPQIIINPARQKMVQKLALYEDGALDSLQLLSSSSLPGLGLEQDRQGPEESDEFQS

Mitogen-activated protein kinase kinase kinase 20, sequence (Q9NYL2 whole entry): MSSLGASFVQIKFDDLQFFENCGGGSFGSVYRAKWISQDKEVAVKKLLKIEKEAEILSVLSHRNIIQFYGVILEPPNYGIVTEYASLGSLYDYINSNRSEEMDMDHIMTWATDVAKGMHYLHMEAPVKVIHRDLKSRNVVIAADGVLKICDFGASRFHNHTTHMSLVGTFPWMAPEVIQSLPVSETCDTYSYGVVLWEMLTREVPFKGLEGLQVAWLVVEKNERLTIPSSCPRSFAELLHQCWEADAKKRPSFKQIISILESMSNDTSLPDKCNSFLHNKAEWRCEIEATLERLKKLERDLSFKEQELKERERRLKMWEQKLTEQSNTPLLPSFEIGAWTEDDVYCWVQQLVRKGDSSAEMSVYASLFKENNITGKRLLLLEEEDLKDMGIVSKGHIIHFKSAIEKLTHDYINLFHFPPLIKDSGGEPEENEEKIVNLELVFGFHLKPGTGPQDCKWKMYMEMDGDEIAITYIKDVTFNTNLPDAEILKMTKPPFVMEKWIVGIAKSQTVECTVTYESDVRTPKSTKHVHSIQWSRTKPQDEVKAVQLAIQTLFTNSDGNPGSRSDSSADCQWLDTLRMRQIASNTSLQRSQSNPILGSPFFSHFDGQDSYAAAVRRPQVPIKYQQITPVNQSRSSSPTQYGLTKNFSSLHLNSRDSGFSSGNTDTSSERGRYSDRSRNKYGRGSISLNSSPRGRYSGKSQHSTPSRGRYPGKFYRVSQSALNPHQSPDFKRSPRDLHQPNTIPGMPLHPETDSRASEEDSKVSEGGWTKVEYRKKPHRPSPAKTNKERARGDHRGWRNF
Tyrosine-protein kinase BTK, sequence (Q06187 whole entry): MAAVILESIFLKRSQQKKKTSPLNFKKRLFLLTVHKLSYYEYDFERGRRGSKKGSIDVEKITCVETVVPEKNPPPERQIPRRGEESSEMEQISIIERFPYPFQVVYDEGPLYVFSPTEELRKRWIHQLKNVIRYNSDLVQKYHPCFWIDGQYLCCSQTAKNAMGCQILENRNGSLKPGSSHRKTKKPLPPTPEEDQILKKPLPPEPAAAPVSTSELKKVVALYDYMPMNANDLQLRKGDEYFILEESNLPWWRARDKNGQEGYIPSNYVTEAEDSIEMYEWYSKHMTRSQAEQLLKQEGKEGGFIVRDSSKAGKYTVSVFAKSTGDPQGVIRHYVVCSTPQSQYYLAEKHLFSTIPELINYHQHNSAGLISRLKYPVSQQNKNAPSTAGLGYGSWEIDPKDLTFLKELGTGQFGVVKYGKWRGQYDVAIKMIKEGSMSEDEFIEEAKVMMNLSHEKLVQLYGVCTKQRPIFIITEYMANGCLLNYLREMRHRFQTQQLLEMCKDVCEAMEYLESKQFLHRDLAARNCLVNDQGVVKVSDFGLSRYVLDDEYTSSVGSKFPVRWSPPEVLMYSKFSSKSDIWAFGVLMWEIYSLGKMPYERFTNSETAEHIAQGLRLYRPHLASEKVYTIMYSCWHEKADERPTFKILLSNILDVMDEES

Turning to `C[C@@H](Nc1cc(F)cc(F)c1)c1cc(C(=O)N(C)C)cc2c(=O)cc(N3CCOCC3)oc12` [AZD-8186], the Kd in experiment [1], in experiment [2], in experiment [3], in experiment [4] and in experiment [5] was > 30 µM (inactive) throughout.
Turning to `COc1cc(OC)c(/C=C/S(=O)(=O)Cc2ccc(OC)c(NCC(=O)O)c2)c(OC)c1` [RIGOSERTIB], the Kd in experiment [1], in experiment [2], in experiment [3], in experiment [4] and in experiment [5] was > 30 µM (inactive) each time.
Consider `CC[C@H](Nc1ncnc2[nH]cnc12)c1nc2cccc(F)c2c(=O)n1-c1ccccc1` [IDELALISIB], for which the Kd in experiment [1], in experiment [2], in experiment [3], in experiment [4] and in experiment [5] was > 30 µM (inactive) in each case.
For the compound `C[C@@H](c1ccc2nccn2c1)n1nnc2ncc(-c3cnn(C)c3)nc21` [SAVOLITINIB], the Kd in experiment [1], in experiment [2], in experiment [3], in experiment [4] and in experiment [5] was > 30 µM (inactive) each time.
For the compound `CN1N=C(N)c2cn([C@@H]3O[C@H](COP(=O)(O)O)[C@@H](O)[C@H]3O)c3ncnc1c23` [TRICIRIBINE PHOSPHATE], the Kd in experiment [1], in experiment [2], in experiment [3], in experiment [4] and in experiment [5] was > 30 µM (inactive) in each case.
Turning to `CNC(=O)CN1CCC(Oc2cc3c(Nc4cccc(Cl)c4F)ncnc3cc2OC)CC1` [SAPITINIB], the Kd in experiment [1], in experiment [2], in experiment [3], in experiment [4] and in experiment [5] was > 30 µM (inactive) each time.
As for `O=C(c1ccc(F)c(F)c1Nc1ccc(I)cc1F)N1CC(O)([C@@H]2CCCCN2)C1` [COBIMETINIB], the Kd in experiment [1], in experiment [2], in experiment [3], in experiment [4] and in experiment [5] was > 30 µM (inactive) throughout.
With `Cc1ccc(S(=O)(=O)Nc2nc3ccccc3nc2Nc2ccc3nsnc3c2)cc1`, the Kd in experiment [1], in experiment [2], in experiment [3], in experiment [4] and in experiment [5] was > 30 µM (inactive) each time.
For `CCS(=O)(=O)N1CC(CC#N)(n2cc(-c3ncnc4[nH]ccc34)cn2)C1` [BARICITINIB], the Kd in experiment [1], in experiment [2], in experiment [3], in experiment [4] and in experiment [5] was > 30 µM (inactive) throughout.
For `Cc1nc(N)sc1-c1ccnc(Nc2ccc(N3CCOCC3)cc2)n1` [CYC-116], the Kd in experiment [3] is 8.09 µM (active); in experiment [4], > 30 µM (inactive).
Consider `Cc1cc(Nc2cc(N3CCN(C)CC3)nc(/C=C/c3ccccc3)n2)n[nH]1` [ENMD-2076], for which the Kd in experiment [1], in experiment [3] and in experiment [4] was > 30 µM (inactive) in each case.
Regarding `Cc1ccc(NC(=O)c2ccc(CN3CC[C@H](N(C)C)C3)c(C(F)(F)F)c2)cc1Nc1nccc(-c2cncnc2)n1` [BAFETINIB], the Kd in experiment [1] is > 30 µM (inactive); in experiment [2] it was 0.065 µM (active); in experiment [3], 0.015 µM (active); in experiment [4], > 30 µM (inactive); in experiment [5], 2.06 µM.
For the compound `O=C(Nc1cccc(Cl)c1)Nc1ncc(CCNc2ncnc3ccsc23)s1` [SNS-314], the Kd in experiment [3] and in experiment [4] was > 30 µM (inactive) in each case.
Take `Cc1ccc(-n2nc(C(C)(C)C)cc2NC(=O)NCc2cc(F)ccc2Oc2ccc3c(cnn3CCO)c2)cc1` [PEXMETINIB]: the Kd in experiment [1] was > 30 µM (inactive); in experiment [2], 1.25 µM (active); in experiment [3], 0.681 µM (active); in experiment [4], > 30 µM (inactive); in experiment [5] it was 4.37 µM (active).
`Nc1nc(N)c2nc(-c3cccc(O)c3)c(-c3cccc(O)c3)nc2n1` [TG100-115]: the Kd in experiment [3] and in experiment [4] was > 30 µM (inactive) each time.
`CN1CCN(c2ccc3nc(-c4c(N)c5c(F)cccc5[nH]c4=O)[nH]c3c2)CC1` [DOVITINIB]: the Kd in experiment [3] is 17.4 µM (active); in experiment [4], > 30 µM (inactive).
Regarding `C1=C/COCc2cc(ccc2OCCN2CCCC2)Nc2nccc(n2)-c2cccc(c2)COC/1` [PACRITINIB], the Kd is > 30 µM (inactive) in experiment [1], > 30 µM (inactive) in experiment [3], > 30 µM (inactive) in experiment [4] and 0.258 µM (active) in experiment [5].
Regarding `COc1cc2nccc(Oc3ccc(NC(=O)Nc4cc(C)on4)c(Cl)c3)c2cc1OC` [TIVOZANIB], the Kd was > 30 µM (inactive) in experiment [1], 0.16 µM (active) in experiment [3], > 30 µM (inactive) in experiment [4] and > 30 µM (inactive) in experiment [5].
`CCc1cnn2c(NCc3ccc[n+]([O-])c3)cc(N3CCCC[C@H]3CCO)nc12` [DINACICLIB]: the Kd in experiment [2], in experiment [3], in experiment [4] and in experiment [5] was > 30 µM (inactive) in each case.
Take `Cn1ncc(Cl)c1-c1cc(C(=O)N[C@H](CN)Cc2cccc(F)c2)sc1Cl` [AFURESERTIB]: the Kd in experiment [1], in experiment [2], in experiment [4] and in experiment [5] was > 30 µM (inactive) each time.
As for `OCCn1cc(-c2cnc3nnn(Cc4ccc5ncccc5c4)c3n2)cn1` [PF-04217903], the Kd in experiment [2], in experiment [3], in experiment [4] and in experiment [5] was > 30 µM (inactive) throughout.
On to `CCn1c(-c2nonc2N)nc2c(C#CC(C)(C)O)ncc(OC[C@H]3CCCNC3)c21` [GSK-690693], for which the Kd in experiment [3] and in experiment [4] was > 30 µM (inactive) each time.
`COc1cc2nccc(Oc3ccc(NC(=O)NC4CC4)c(Cl)c3)c2cc1C(N)=O` [LENVATINIB]: the figures for the Kd in experiment [2], in experiment [3] and in experiment [4] were > 30 µM (inactive), 4.11 µM (active) and > 30 µM (inactive), respectively.
`Cc1cn(-c2cc(NC(=O)c3ccc(C)c(Nc4nccc(-c5cccnc5)n4)c3)cc(C(F)(F)F)c2)cn1` [NILOTINIB]: the Kd in experiment [4] was > 30 µM (inactive).
`COC(=O)N[C@@H](C)CNc1nccc(-c2cn(C(C)C)nc2-c2cc(Cl)cc(NS(C)(=O)=O)c2F)n1` [ENCORAFENIB]: the Kd in experiment [1] is > 30 µM (inactive); in experiment [3] it was > 30 µM (inactive); in experiment [4], > 30 µM (inactive); in experiment [5] it was 0.247 µM (active).
